In patent US20030166516A1, “Methods of treating, preventing, or inhibiting inflammation with exumolide compounds” (priority 2001, published 2003):
Where a SMILES comes first, the peptide text is derived from it. [ ]: non-standard residue; d: D form. Hica(2S) = CC(C)C[C@H](O)C(=O)O; NMeL = CN[C@@H](CC(C)C)C(=O)O

How the values were obtained:
[1] = system: edema caused by phorbol 12-myristate 13-acetate (PMA) in mouse ear; assay: Inhibition of mouse ear edema (PMA mouse ear model); assay type: in vivo, mice; settings: for inflammation caused by PMA (result in words): irritant phorbol 12-myristate 13-acetate (PMA)
Description: The efficacy of Exumolide compounds as an anti-inflammatory agent was established by the following assay. Exumolide A was topically applied in acetone to the inside pinnae of the ears of mice in a solution comprising an edema-causing irritant, phorbol 12-myristate 13-acetate (PMA). Specifically, 2 μg/ear of PMA alone or in combination with 50 μg/ear of Exumolide A was applied to the left ears (5 mice per treatment group) and acetone was applied to all right ears. After 3 hours, 20 minutes incubation, the mice were sacrificed, the ears removed and bores taken and weighed. Edema was measured by subtracting the weight of the right ear (acetone control) from the weight of the left ear (treated). Results were recorded as % decrease (inhibition) or % increase (potentiation) in edema relative to the PMA control group edema.

[2] = system: cell proliferation; assay: conventional [3H]-thymidine incorporation assays; assay type: cell-based
Excerpt: Thus, the present invention also provides a method of treating, preventing, or inhibiting inflammation or an inflammatory disease or disorder in a subject without inhibiting cell proliferation in the subject.

[3] = reported on isolation, Fenical et al. (1998) Tetrahed. Letts. 39:2463-2466; cited from earlier work

Row | Compound | Edema (mg ± SEM) ([1]; 50 ug/ear topical in acetone with 2 μg/ear PMA, left minus right ear bore weight after 3 hours, 20 minutes) | inflammation caused by PMA (result in words) [1] | inhibition of cell proliferation [2] | antibiotic activity [3]
1 | CC(C)C[C@@H]1OC(=O)[C@@H]2CCCN2C(=O)[C@H](Cc2ccccc2)NC(=O)[C@H](Cc2ccccc2)NC(=O)[C@H](CC(C)C)N(C)C(=O)[C@@H]2CCCN2C1=O [Exumolide A] (cyclo(FFP[Hica(2S)]P[NMeL])) | 4.3 ± 1.0 mg | prevent or inhibit inflammation | do not inhibit cell proliferation | exhibit antibiotic activity
2 | CC(C)C[C@@H]1NC(=O)[C@@H]2CCCN2C(=O)[C@H](CC(C)C)OC(=O)[C@@H]2CCCN2C(=O)[C@H](Cc2ccccc2)NC(=O)[C@H](Cc2ccccc2)NC1=O [Exumolide B] (cyclo(FFP[Hica(2S)]PL)) | – | prevent or inhibit inflammation | do not inhibit cell proliferation | exhibit antibiotic activity
